{"source": "ChEMBL document CHEMBL3351324", "about": "“Impact of Stereochemistry on Ligand Binding: X-ray Crystallographic Analysis of an Epoxide-Based HIV Protease Inhibitor” (ACS Med Chem Lett, 2014)", "key": {"[1]": {"target": "Protease (Human immunodeficiency virus 1) (UniProt Q9YQ12)", "experiment": "Time dependent inhibition of HIV1 protease by standard fluorimetric assay"}, "Protease": {"target": "Protease (Human immunodeficiency virus 1, UniProt Q9YQ12)", "experiment": "Inhibition of HIV1 protease by standard fluorimetric assay"}, "[2]": {"target": "Protease (Human immunodeficiency virus 1) (UniProt Q9YQ12)", "experiment": "Inhibition of HIV1 protease assessed as compound epoxide ring interaction with enzyme active site by X-ray crystallography"}, "[3]": {"target": "Protease (Human immunodeficiency virus 1) (UniProt Q9YQ12)", "experiment": "Covalent inhibition of HIV1 protease assessed as covalent modification of enzyme residues by ESI-MS method"}, "[4]": {"target": "Protease (Human immunodeficiency virus 1) (UniProt Q9YQ12)", "experiment": "Irreversible inhibition of HIV1 protease by standard fluorimetric assay"}}, "note": "The source made the active and inactive calls. No cut-off for these calls is given here."}
{"smiles": "CC(C)[C@H](NC(=O)COc1ccccc1)C(=O)N[C@@H](Cc1ccccc1)[C@@H](O)[C@@H]1O[C@H]1Cc1ccccc1", "values": [{"measurement": "inhibition", "setting": "[1]", "value": "inactive"}, {"measurement": "IC50", "setting": "Protease", "value": 0.67, "unit": "µM"}, {"measurement": "inhibition", "setting": "[2]", "value": "Active"}, {"measurement": "inhibition", "setting": "[3]", "value": "inactive"}, {"measurement": "inhibition", "setting": "[4]", "value": "inactive"}]}
